Data from PubChem BioAssay AID194 (DTP/NCI, 2004).
Several values for one entry are separate records, joined by “and”; a condition that tells them apart may be missing. Equal entries are not always repeated. Results filed as inconclusive are left out.

Test system: BDF1 mice, B16 melanoma s.c., survival/tumor T/C
Experiment: NCI In Vivo Anticancer Drug Screen. Data for tumor model B16 Melanoma (subcutaneous) in B6D2F1 (BDF1) mice
Experimental: The antitumor activity of compounds was measured in mice bearing transplantable tumors. Survival or tumor size were measured and the results are expressed as the measurement made in the treated group (T) divided by the measurement made in the vehicle treated control group (C). The tumor model used in this assay is B16 Melanoma (subcutaneous) in B6D2F1 (BDF1) mice

[1] = endpoint: median survival time, dose: 100.0 mg/kg/injection, schedule: Q04DX003 (ip), vehicle: saline, higher = longer survival
[2] = endpoint: median survival time, dose: 2.0 mg/kg/injection, schedule: Q02DX009 (ip), vehicle: saline, higher = longer survival
[3] = endpoint: median survival time, dose: 8.0 mg/kg/injection, schedule: Q02DX009 (ip), vehicle: saline, higher = longer survival

Structure (SMILES): Nc1c(Cl)c(Cl)nc(C(=O)O)c1Cl
- T/C (endpoint: median survival time, dose: 3.12 mg/kg/injection, schedule: Q02DX009 (ip), vehicle: Klucel (hydroxypropylcellulose) (HPC), higher = longer survival): 108 % of control
- T/C (endpoint: median survival time, dose: 6.25 mg/kg/injection, schedule: Q01DX015 (sc), vehicle: other, higher = longer survival): 105 % of control
- T/C (endpoint: median survival time, dose: 6.25 mg/kg/injection, schedule: Q02DX009 (ip), vehicle: Klucel (hydroxypropylcellulose) (HPC), higher = longer survival): 97 % of control
- T/C (endpoint: median survival time, dose: 12.5 mg/kg/injection, schedule: Q01DX015 (sc), vehicle: other, higher = longer survival): 105 % of control
- T/C (endpoint: median survival time, dose: 25.0 mg/kg/injection, schedule: Q01DX015 (sc), vehicle: other, higher = longer survival): 101 % of control
- T/C (endpoint: median survival time, dose: 50.0 mg/kg/injection, schedule: Q02DX009 (ip), vehicle: Klucel (hydroxypropylcellulose) (HPC), higher = longer survival): 94 % of control
- T/C (endpoint: median survival time, dose: 100.0 mg/kg/injection, schedule: Q02DX009 (ip), vehicle: Klucel (hydroxypropylcellulose) (HPC), higher = longer survival): 90 % of control
- T/C (endpoint: median survival time, dose: 200.0 mg/kg/injection, schedule: Q02DX009 (ip), vehicle: Klucel (hydroxypropylcellulose) (HPC), higher = longer survival): 87 % of control

Structure (SMILES): CC1(C)N=C(N)N=C(N)N1c1ccc(CNC(=O)Nc2cccc(S(=O)(=O)F)c2)cc1
- T/C [1]: 100 % of control
- T/C (endpoint: median survival time, dose: 225.0 mg/kg/injection, schedule: Q04DX003 (ip), vehicle: saline, higher = longer survival): 122 % of control

Structure (SMILES): CC1(C)N=C(N)N=C(N)N1c1ccc(CCCCc2ccc(S(=O)(=O)F)cc2Cl)c(Cl)c1
- T/C (endpoint: median survival time, dose: 6.25 mg/kg/injection, schedule: Q01DX009 (ip), vehicle: saline, higher = longer survival): 119 % of control
- T/C (endpoint: median survival time, dose: 12.5 mg/kg/injection, schedule: Q01DX009 (ip), vehicle: saline, higher = longer survival): 90 % of control
- T/C (endpoint: median survival time, dose: 18.75 mg/kg/injection, schedule: Q04DX003 (ip), vehicle: saline, higher = longer survival): 88 % of control
- T/C (endpoint: median survival time, dose: 25.0 mg/kg/injection, schedule: Q01DX009 (ip), vehicle: saline, higher = longer survival): 111 % of control
- T/C (endpoint: median survival time, dose: 37.5 mg/kg/injection, schedule: Q04DX003 (ip), vehicle: saline, higher = longer survival): 105 % of control
- T/C (endpoint: median survival time, dose: 75.0 mg/kg/injection, schedule: Q04DX003 (ip), vehicle: saline, higher = longer survival): 110 % of control
- T/C (endpoint: median survival time, dose: 150.0 mg/kg/injection, schedule: Q04DX003 (ip), vehicle: saline, higher = longer survival): 119 % of control

Structure (SMILES): N/C(=N\Cl)C(Cl)(Cl)Cl
- T/C (endpoint: median survival time, dose: 6.25 mg/kg/injection, schedule: Q01DX009 (ip), vehicle: saline with Tween-80, higher = longer survival): 102 % of control
- T/C (endpoint: median survival time, dose: 12.5 mg/kg/injection, schedule: Q01DX009 (ip), vehicle: saline with Tween-80, higher = longer survival): 98 % of control
- T/C (endpoint: median survival time, dose: 50.0 mg/kg/injection, schedule: Q01DX009 (ip), vehicle: saline with Tween-80, higher = longer survival): 94 % of control

Structure (SMILES): CC1=CCC(C(C)C)C=C1 (stereo not drawn)
- T/C (endpoint: median survival time, dose: 25.0 mg/kg/injection, schedule: Q01DX009 (ip), vehicle: Klucel (hydroxypropylcellulose) (HPC), higher = longer survival): 121 % of control
- T/C (endpoint: median survival time, dose: 50.0 mg/kg/injection, schedule: Q01DX009 (ip), vehicle: Klucel (hydroxypropylcellulose) (HPC), higher = longer survival): 117 % of control
- T/C (endpoint: median survival time, dose: 100.0 mg/kg/injection, schedule: Q01DX009 (ip), vehicle: Klucel (hydroxypropylcellulose) (HPC), higher = longer survival): 89 % of control and 100 % of control
- T/C (endpoint: median survival time, dose: 200.0 mg/kg/injection, schedule: Q01DX009 (ip), vehicle: Klucel (hydroxypropylcellulose) (HPC), higher = longer survival): 98 % of control and 108 % of control

Structure (SMILES): CC1(C)N=C(N)N=C(N)N1c1ccc(OCC(=O)Nc2ccc(S(=O)(=O)F)cc2)c(Cl)c1
- T/C (endpoint: median survival time, dose: 50.0 mg/kg/injection, schedule: Q04DX003 (ip), vehicle: saline, higher = longer survival): 115 % of control
- T/C [1]: 113 % of control

Structure (SMILES): C[n+]1c(/C=C\C=C\N2CCCCC2)sc2ccccc21
- T/C (endpoint: median survival time, dose: 0.01 mg/kg/injection, schedule: Q01DX009 (ip), vehicle: Klucel (hydroxypropylcellulose) (HPC), higher = longer survival): 188 % of control
- T/C (endpoint: median survival time, dose: 0.02 mg/kg/injection, schedule: Q01DX009 (ip), vehicle: Klucel (hydroxypropylcellulose) (HPC), higher = longer survival): 170 % of control
- T/C (endpoint: median survival time, dose: 0.05 mg/kg/injection, schedule: Q01DX009 (ip), vehicle: Klucel (hydroxypropylcellulose) (HPC), higher = longer survival): 160 % of control
- T/C (endpoint: median survival time, dose: 0.1 mg/kg/injection, schedule: Q01DX009 (ip), vehicle: Klucel (hydroxypropylcellulose) (HPC), higher = longer survival): 171 % of control
- T/C (endpoint: median survival time, dose: 0.4 mg/kg/injection, schedule: Q01DX009 (ip), vehicle: Klucel (hydroxypropylcellulose) (HPC), higher = longer survival): 121 % of control

Structure (SMILES): CNc1ncnc2c1cnn2C
- T/C (endpoint: median survival time, dose: 10.0 mg/kg/injection, schedule: Q01DX009 (ip), vehicle: saline, higher = longer survival): 92 % of control
- T/C (endpoint: median survival time, dose: 20.0 mg/kg/injection, schedule: Q01DX009 (ip), vehicle: saline, higher = longer survival): 103 % of control

Structure (SMILES): CCCCC[C@H](O)/C=C/[C@H]1[C@H](O)CC(=O)[C@@H]1C/C=C\CCCC(=O)O
- T/C (endpoint: median survival time, dose: 0.75 mg/kg/injection, schedule: Q04DX002 (ip), vehicle: Klucel (hydroxypropylcellulose) (HPC), higher = longer survival): 98 % of control
- T/C (endpoint: median survival time, dose: 3.0 mg/kg/injection, schedule: Q04DX002 (ip), vehicle: Klucel (hydroxypropylcellulose) (HPC), higher = longer survival): 118 % of control
- T/C (endpoint: median survival time, dose: 6.0 mg/kg/injection, schedule: Q04DX002 (ip), vehicle: Klucel (hydroxypropylcellulose) (HPC), higher = longer survival): 122 % of control
- T/C (endpoint: median survival time, dose: 12.5 mg/kg/injection, schedule: Q04DX002 (ip), vehicle: saline with Tween-80, higher = longer survival): 87 % of control

Structure (SMILES): S=P(N1CC1)(N1CC1)N1CC1
- T/C (endpoint: median survival time, dose: 1.0 mg/kg/injection, schedule: Q01DX001 (oral), vehicle: saline, higher = longer survival): 97 % of control
- T/C (endpoint: median survival time, dose: 1.0 mg/kg/injection, schedule: Q02DX009 (ip), vehicle: saline, higher = longer survival): 109 % of control and 113 % of control
- T/C (endpoint: median survival time, dose: 2.0 mg/kg/injection, schedule: Q01DX001 (oral), vehicle: saline, higher = longer survival): 89 % of control
- T/C (endpoint: median survival time, dose: 2.0 mg/kg/injection, schedule: Q01DX009 (ip), vehicle: saline, higher = longer survival): 106 % of control
- T/C [2]: 99 % of control and 202 % of control
- T/C (endpoint: median survival time, dose: 4.0 mg/kg/injection, schedule: Q01DX001 (oral), vehicle: saline, higher = longer survival): 98 % of control
- T/C (endpoint: median survival time, dose: 8.0 mg/kg/injection, schedule: Q01DX001 (oral), vehicle: saline, higher = longer survival): 100 % of control
- T/C [3]: 98 % of control
- T/C (endpoint: median survival time, dose: 12.5 mg/kg/injection, schedule: Q01DX001 (ip), vehicle: saline, higher = longer survival): 105 % of control
- T/C (endpoint: median survival time, dose: 16.0 mg/kg/injection, schedule: Q01DX001 (oral), vehicle: saline, higher = longer survival): 100 % of control

Structure (SMILES): OCC1OC(n2cnc3c2NC=NC[C@H]3O)CC1O (stereo partly drawn)
- T/C (endpoint: median survival time, dose: 0.05 mg/kg/injection, schedule: Q03HX024 (ip), vehicle: saline, higher = longer survival): 90 % of control
- T/C (endpoint: median survival time, dose: 0.1 mg/kg/injection, schedule: Q03HX024 (ip), vehicle: saline, higher = longer survival): 105 % of control

Structure (SMILES): C[CH2][Ge]1([CH2]C)[CH2]CC2(CCN(CCCN(C)C)C2)C[CH2]1
- T/C [2]: 96 % of control
- T/C (endpoint: median survival time, dose: 4.0 mg/kg/injection, schedule: Q01DX009 (ip), vehicle: saline, higher = longer survival): 98 % of control
- T/C (endpoint: median survival time, dose: 4.0 mg/kg/injection, schedule: Q02DX009 (ip), vehicle: saline, higher = longer survival): 110 % of control
- T/C (endpoint: median survival time, dose: 8.0 mg/kg/injection, schedule: Q01DX009 (ip), vehicle: saline, higher = longer survival): 101 % of control
- T/C [3]: 102 % of control
- T/C (endpoint: median survival time, dose: 16.0 mg/kg/injection, schedule: Q01DX009 (ip), vehicle: saline, higher = longer survival): 98 % of control
- T/C (endpoint: median survival time, dose: 16.0 mg/kg/injection, schedule: Q02DX009 (ip), vehicle: saline, higher = longer survival): 111 % of control
- T/C (endpoint: median survival time, dose: 32.0 mg/kg/injection, schedule: Q01DX009 (ip), vehicle: saline, higher = longer survival): 112 % of control
- T/C (endpoint: median survival time, dose: 32.0 mg/kg/injection, schedule: Q02DX009 (ip), vehicle: saline, higher = longer survival): 109 % of control
- T/C (endpoint: median survival time, dose: 64.0 mg/kg/injection, schedule: Q01DX009 (ip), vehicle: saline, higher = longer survival): 97 % of control

Structure (SMILES): Cc1c(N)nc(C(CC(N)=O)NCC(N)C(N)=O)nc1C(=O)NC(C(=O)NC(C)C(O)C(C)C(=O)NC(C(=O)NCCc1nc(-c2nc(C(=O)NCCCNCCCCN)cs2)cs1)C(C)O)C(OC1OC(CO)C(O)C(O)C1OC1OC(CO)C(O)C(OC(N)=O)C1O)c1cnc[nH]1 (stereo not drawn)
- T/C (endpoint: median survival time, dose: 1.56 mg/kg/injection, schedule: Q01DX009 (ip), vehicle: water, higher = longer survival): 164 % of control
- T/C (endpoint: median tumor weight (est.), dose: 1.56 mg/kg/injection, schedule: Q01DX009 (ip), vehicle: water, higher = larger tumour): 41 % of control
- T/C (endpoint: median tumor weight (est.), dose: 3.12 mg/kg/injection, schedule: Q01DX009 (ip), vehicle: water, higher = larger tumour): 24 % of control
- T/C (endpoint: median tumor weight (est.), dose: 6.25 mg/kg/injection, schedule: Q01DX009 (ip), vehicle: water, higher = larger tumour): 12 % of control

Structure (SMILES): O=c1[nH]cc(N(CCCl)CCCl)c(=O)[nH]1
- T/C (endpoint: median survival time, dose: 0.25 mg/kg/injection, schedule: Q01DX009 (ip), vehicle: saline with Tween-80, higher = longer survival): 109 % of control
- T/C (endpoint: median survival time, dose: 0.5 mg/kg/injection, schedule: Q01DX009 (ip), vehicle: saline with Tween-80, higher = longer survival): 124 % of control

Structure (SMILES): O=NN(CCF)C(=O)N[C@H]1CCCC[C@H]1O
- T/C (endpoint: median survival time, dose: 5.18 mg/kg/injection, schedule: Q01DX007 (ip), vehicle: water, higher = longer survival): 68 % of control
- T/C (endpoint: median survival time, dose: 8.64 mg/kg/injection, schedule: Q01DX007 (ip), vehicle: water, higher = longer survival): 105 % of control
- T/C (endpoint: median survival time, dose: 14.4 mg/kg/injection, schedule: Q01DX007 (ip), vehicle: water, higher = longer survival): 121 % of control
